PMC8037814, “Polymorphic Characterization, Pharmacokinetics, and Anti-Inflammatory Activity of Ginsenoside Compound K Polymorphs” (Molecules, 2021)
“And” between values parts separate entries of the source, which are not always exact repeats. Equal values may be shown once. Read-outs that look alike come from different tables or passages of the source.

Test: Pharmacokinetics after intravenous administration of CK in rats (10 mg/kg)
Assay type: in vivo, Sprague-Dawley rats
Conditions: i.v. 10 mg/kg; for half-life: read-out: t1/2z (converted)
Protocol: All samples were analyzed with a triple quadrupole LC-MS/MS (API 4000 LC-MS/MS, AB Sciex, Framingham, MA, USA) coupled with an Agilent 1200 HPLC system (Agilent Technologies, Palo Alto, CA, USA). The MS was equipped with an electrospray system (ESI). The N2 gas temperature and ion-spray voltage were set to 550 °C and 4.5 kV, respectively. CK was measured in multiple reaction monitoring (MRM) mode using a negative electrospray ionization source at m/z 667.4 → 621.2 for CK (CID 25.6 v) and m/z 271.2 → 228.8 for internal standard (IS, (E)-5-(4-fluorostyryl)-2-isopropylbenzene-1,3-diol, Welichem Biotech Inc., Wayburne Drive Burnaby, BC, Canada) (CID 28.3 v) with a dwell time of 0.1 s.
Rats were divided randomly into 5 groups of six animals each (sex in half) and given 7 days to acclimatize to the facility before the experiments began. The four forms of CK were suspended in 0.5% sodium carboxymethyl cellulose (CMC-Na) solution and orally administered to rats at a dose of 20 mg/kg. A CK solution in a mixed solvent of dimethyl sulfoxide (DMSO)/castor oil/physiologic saline (3:5:92, v/v) was intravenously administered to the remaining group via the tail vein at a dose of 10 mg/kg. Blood samples were collected by retro-orbital puncture at the following times: 0.167, 0.333, 0.667, 1, 2, 3, 4, 6, 9, 12, and 24 h for the oral administration, and at 0.0083, 0.05, 0.133, 0.25, 0.5, 1, 2, 4, 6, and 9 h for the intravenous administration. Plasma samples were obtained by centrifuging a heparinized blood tube at 4000 rpm for 5 min and then stored at −70 °C until analysis.
The procedure for drug extraction from plasma samples was as follows: 0.2 mL acetonitrile, 0.2 mL plasma sample, and 10 μL IS (1 µg/mL) were added into a 1.5 mL Eppendorf-type tube. This mixture was vortexed for 1 min and then treated with 0.8 mL of methyl tert-butyl ether (MTBE) to precipitate the plasma proteins. After a mechanical vortex for 1 min and subsequent centrifugation (4000 rpm, 5 min), 0.8 mL of the supernatant was transferred and blow-dried with N2 at 40 °C in a water bath. Finally, the residue was dissolved in 120 μL of mobile phase, and then 10 μL was subjected to HPLC for analysis. […] Intra- and inter-day precision and accuracy never exceeded 15% by analyzing six replicate samples.
The CK pharmacokinetic parameters in rats, including the area under the curve (AUC(0–t) and AUC(0–∞)), mean residence time (MRT(0–t) and MRT(0–∞)), maximum concentration (Cmax), time to maximum concentration (Tmax), half-life (t1/2), apparent distribution volume (V), and total plasma clearance (CL), were derived from plasma concentration-time curves by using non-compartmental analysis (NCA) with DAS 2.0 software (Drug And Statistics, Mathematical Pharmacology Professional Committee of China, Shanghai, China). The absolute bioavailability (Fabs) was calculated from the dose-adjusted ratio of AUCp.o. to AUCi.v.. One-way analysis of variance (ANOVA) by SPSS 11.5 (SPSS Inc., Chicago, IL, USA) was conducted to compare the primary PK parameters.

[1] = female rats, individual rats 1-3, 10 mg/kg
[2] = female, Sprague-Dawley, rat, plasma, iv, 10 mg/kg, female rats, Mean±SD

For `CC(C)=CCCC(C)(OC1OC(CO)C(O)C(O)C1O)C1CCC2(C)C1C(O)CC1C3(C)CCC(O)C(C)(C)C3CCC12C` [CK, 20-O-β-D-glucopyranosyl-20(S)-protopanaxadiol], the “Plasma concentrations of CK” value (female rats, 0.5 min, individual rats 1-3, 10 mg/kg) was 54838.90 ng/mL and 127905.96 ng/mL and 48362.17 ng/mL, the “Plasma concentrations of CK” value (female rats, 0.05 h, individual rats 1-3, 10 mg/kg) was 15185.26 ng/mL and 25786.82 ng/mL and 6748.70 ng/mL and the “Plasma concentrations of CK” value (female rats, 8 min, individual rats 1-3, 10 mg/kg) was 1631.02 ng/mL and 4937.02 ng/mL and 980.77 ng/mL. The “Plasma concentrations of CK” value (female rats, 0.25 h, individual rats 1-3, 10 mg/kg) was 672.83 ng/mL and 1554.81 ng/mL and 553.32 ng/mL, the “Plasma concentrations of CK” value (female rats, 0.5 h, individual rats 1-3, 10 mg/kg) was 411.75 ng/mL and 359.74 ng/mL and the “Plasma concentrations of CK” value (female rats, 1 h, individual rats 1-3, 10 mg/kg) was 117.01 ng/mL and 136.73 ng/mL and 243.80 ng/mL. The “Plasma concentrations of CK” value (female rats, 2 h, individual rats 1-3, 10 mg/kg) was 136.06 ng/mL and 82.52 ng/mL, the “Plasma concentrations of CK” value (female rats, 4 h, individual rats 1-3, 10 mg/kg) was 63.54 ng/mL and 48.16 ng/mL and 99.22 ng/mL and the “Plasma concentrations of CK” value (female rats, 6 h, individual rats 1-3, 10 mg/kg) was 27.72 ng/mL and 22.95 ng/mL and 47.61 ng/mL. The “Plasma concentrations of CK” value (female rats, 9 h, individual rats 1-3, 10 mg/kg) was 27.31 ng/mL and 14.83 ng/mL and 34.93 ng/mL, the CLz/F (female rats, Mean±SD) was 92.7 ± 34.3 mL/min/kg and the Vz/F (female rats, Mean±SD) was 17.75 ± 7.49 L/kg. For the same compound, the “AUC(0-t)” value [1] was 3164.67 ng·h/mL and 6150.84 ng·h/mL and 2722.08 ng·h/mL, the “AUC(0-∞)” value [1] was 3206.10 ng·h/mL and 6173.20 ng·h/mL and 2779.29 ng·h/mL and the CLz/F [1] was 104 mL/min/kg and 54 mL/min/kg and 120 mL/min/kg. The “MRT(0-t)” value [1] was 34.2 min and 15.6 min and 60 min, the “MRT(0-∞)” value [1] was 56.4 min and 20.4 min and 86.4 min and the Vz/F [1] was 21.99 L/kg and 9.10 L/kg and 22.17 L/kg. For the same compound, the t1/2z [1] was 117 min and 128 min, the concentration at 0.5 min (female, Sprague-Dawley, rat, plasma, iv, 10 mg/kg, female rats, 0.5 min, Mean±SD, read-out: Plasma concentrations of CK) was 77000 ± 44200 ng/mL and the concentration at 0.05 h (female, Sprague-Dawley, rat, plasma, iv, 10 mg/kg, female rats, 0.05 h, Mean±SD, read-out: Plasma concentrations of CK) was 15900 ± 9540 ng/mL. The concentration at 8 min (female, Sprague-Dawley, rat, plasma, iv, 10 mg/kg, female rats, 8 min, Mean±SD, read-out: Plasma concentrations of CK) was 2520 ± 2120 ng/mL, the concentration at 0.25 h (female, Sprague-Dawley, rat, plasma, iv, 10 mg/kg, female rats, 0.25 h, Mean±SD, read-out: Plasma concentrations of CK) was 927 ± 547 ng/mL and the concentration at 0.5 h (female, Sprague-Dawley, rat, plasma, iv, 10 mg/kg, female rats, 0.5 h, Mean±SD, read-out: Plasma concentrations of CK) was 354 ± 60.4 ng/mL. It also gave a concentration at 0.5 h (female, Sprague-Dawley, rat, plasma, iv, 10 mg/kg, female rats, 0.5 h, individual rats 1-3, read-out: Plasma concentrations of CK) of 291 ng/mL, a concentration at 1 h (female, Sprague-Dawley, rat, plasma, iv, 10 mg/kg, female rats, 1 h, Mean±SD, read-out: Plasma concentrations of CK) of 166 ± 68.2 ng/mL and a concentration at 2 h (female, Sprague-Dawley, rat, plasma, iv, 10 mg/kg, female rats, 2 h, Mean±SD, read-out: Plasma concentrations of CK) of 102 ± 29.8 ng/mL. The concentration at 2 h (female, Sprague-Dawley, rat, plasma, iv, 10 mg/kg, female rats, 2 h, individual rats 1-3, read-out: Plasma concentrations of CK) was 86.6 ng/mL, the concentration at 4 h (female, Sprague-Dawley, rat, plasma, iv, 10 mg/kg, female rats, 4 h, Mean±SD, read-out: Plasma concentrations of CK) was 70.3 ± 26.2 ng/mL and the concentration at 6 h (female, Sprague-Dawley, rat, plasma, iv, 10 mg/kg, female rats, 6 h, Mean±SD, read-out: Plasma concentrations of CK) was 32.8 ± 13.1 ng/mL. The concentration at 9 h (female, Sprague-Dawley, rat, plasma, iv, 10 mg/kg, female rats, 9 h, Mean±SD, read-out: Plasma concentrations of CK) was 25.7 ± 10.1 ng/mL, the AUC(0-inf) [2] was 4050 ± 1850 ng·h/mL and the AUC(0-t) (female, Sprague-Dawley, rat, plasma, iv, 10 mg/kg, female rats, Mean±SD, read-out: AUC(0-t)) was 4010 ± 1870 ng·h/mL. The MRT last (female, Sprague-Dawley, rat, plasma, iv, 10 mg/kg, female rats, Mean±SD, read-out: MRT(0-t)) was 36.6 ± 22.2 min, the MRT inf (female, Sprague-Dawley, rat, plasma, iv, 10 mg/kg, female rats, Mean±SD, read-out: MRT(0-∞)) was 54.6 ± 33 min and the half-life [2] was 131 ± 15 min. For the same compound, the half-life (female, Sprague-Dawley, rat, plasma, iv, 10 mg/kg, female rats, individual rats 1-3) was 146 min, the “Plasma concentrations of CK” value (male rats, 0.5 min, individual rats 1-3, 10 mg/kg) was 67670.83 ng/mL and 69233.93 ng/mL and the “Plasma concentrations of CK” value (male rats, 0.05 h, individual rats 1-3, 10 mg/kg) was 11403.43 ng/mL and 18155.87 ng/mL. The “Plasma concentrations of CK” value (male rats, 8 min, individual rats 1-3, 10 mg/kg) was 1214.82 ng/mL and 3002.82 ng/mL and 2609.85 ng/mL, the “Plasma concentrations of CK” value (male rats, 0.25 h, individual rats 1-3, 10 mg/kg) was 664.52 ng/mL and 1307.24 ng/mL and the “Plasma concentrations of CK” value (male rats, 0.5 h, individual rats 1-3, 10 mg/kg) was 214.44 ng/mL and 391.89 ng/mL.
